Measurements published in patent US20220304945A1, “METHODS OF TREATING METABOLIC SYNDROME RELATED CONDITIONS USING RETINOIC ACID RECEPTOR AGONISTS” (Cornell University, priority 2014, published 2022).
Entries after “also recorded” stand apart in the source; their conditions may differ.

Key:
[1] = system: 4-HNE, oxidative stress in pancreatic islets; experiment: 4-hydroxynonenal (4-HNE) staining of pancreas, HF-fed mice; format: in vivo, mouse; details: HF diet mice, AC261066 in drinking water; vs HF-vehicle
Text: (§1) Mice, diet, and drug treatment. WT male C57/BL6 male mice were maintained on either a standard laboratory chow-fed diet (CFD) with 13% kcal fat, (diet #5053, Lab Diet, Inc, St. Louis, Mo.) or a high fat, western style diet (HFD) with 60% kcals from fat, (diet #58126, Lab Diet, Inc., St. Louis, Mo.) for 4 months. One month after the start of the high fat diet treatment, the high fat diet group was further split into 2 groups for 3 months: i) high fat diet and the drinking water containing 1% DMSO; ii) high fat diet and the drinking water containing 1.5 mg/100 ml AC261066, a specific RARβ agonist. Then mice were sacrificed by cervical dislocation. Blood and various tissue samples were harvested.
4-hydroxynonenal (4-HNE) staining. Paraffin-embedded sections (from two to four mice per group) were deparaffinized and rehydrated, and antigen retrieval was performed using an antigen unmasking solution (Vector Laboratories, H-3300). After quenching endogenous peroxidase with 3% H2O2, the tissue sections were blocked with the blocking reagent (from the M.O.M. kit from Vector Laboratories). Then, tissue sections were incubated with a 4-HNE antibody (1:400; mouse monoclonal antibody; Abcam, ab48506) overnight at 4° C. The sections were then incubated with secondary antibodies (1:200, anti-mouse IgG from the M.O.M kit). […]

[2] = system: pancreatic islets (β-cells); experiment: Pancreatic islet size (insulin immunofluorescence) and pancreatic insulin content (ELISA); format: in vivo, mouse; details: Ob/Ob and Db/Db models
Experimental: Immunofluorescence and Immunostaining Microscopy-Paraffin embedded pancreatic tissue sections were incubated with antibodies against: insulin (mouse monoclonal 1:300, #1061, Beta Cell Biology Consortium). We utilized Alexa-fluor 488 conjugated anti-mouse secondary antibody (1:500) (Invitrogen, Carlsbad, Calif.) for immunofluorescence labeling of insulin followed by visualization using a Nikon TE2000 inverted fluorescence microscope (Nikon, Inc).
Pancreatic Insulin Measurements-Pancreatic insulin levels were measured in lysates from pancreatic tissues using an ultrasensitive Insulin ELISA Kit (Alpco, Inc. Salem, N.H.) as per the manufacturers' instructions. Insulin concentrations were normalized to pancreatic protein concentrations determined using the DC protein assay (Bio-Rad, Inc. Hercules, Calif.) according to the manufacturers' protocol. Endocrine hormones levels are reported as mean±standard error of the mean (S.E.M) and P-values calculated using one-way analysis of variance followed by Bonferroni multiple comparison test post-hoc analysis.
Measurement of Pancreatic Endocrine Cell Mass.—Pancreatic endocrine cell mass was determined using a direct point counting method as previously described. […]

[3] = Serum triglyceride level measurement (bichromatic assay), Example 8; format: in vivo, mouse; details: HF diet mice (Example 8); vs control diet
Text: as §1
Serum triglyceride level measurement. The analysis of serum triglyceride levels was carried out using a bichromatic assay at the Laboratory of Comparative Pathology of the Memorial Sloan-Kettering Cancer Center. Chow-fed diet (CFD) n=2; high fat diet (HFD) n=3; high fat diet+AC261066 (HFDAC) n=5.

RARβ2 = target: T1, RARβ2 (Homo sapiens, UniProt P10826); details: as described in Lund et al. 2005; cited from earlier work
T1 sequence (P10826 1-448 isoform P10826-2): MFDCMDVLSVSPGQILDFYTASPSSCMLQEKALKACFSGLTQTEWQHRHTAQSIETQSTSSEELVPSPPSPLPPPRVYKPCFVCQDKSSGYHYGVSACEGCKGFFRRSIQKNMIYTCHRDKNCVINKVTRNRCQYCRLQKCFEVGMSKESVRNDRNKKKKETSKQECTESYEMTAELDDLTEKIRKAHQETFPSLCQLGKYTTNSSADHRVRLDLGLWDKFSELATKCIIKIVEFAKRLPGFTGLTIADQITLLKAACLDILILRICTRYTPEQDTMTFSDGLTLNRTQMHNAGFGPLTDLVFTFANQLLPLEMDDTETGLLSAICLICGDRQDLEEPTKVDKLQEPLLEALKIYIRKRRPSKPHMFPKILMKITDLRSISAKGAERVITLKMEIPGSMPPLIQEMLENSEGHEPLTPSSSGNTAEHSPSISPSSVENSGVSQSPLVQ

Ob/Ob and Db/Db mice = experiment: Metabolic studies (body weight, GTT, insulin secretion, ITT) in Ob/Ob and Db/Db mice, 8 weeks; format: in vivo, mouse

CCCCOCCOc1nc(-c2ccc(C(=O)O)c(F)c2)sc1C [AC261066]
4-HNE level (oxidative stress) in pancreatic islets [1]: reduces oxidative stress; also recorded: markedly lower | pancreatic insulin content [2]: diminishes | number of large pancreatic islets (enlarged β-cells) ([2]; HF-fed mice): diminishes | serum triglyceride levels [3]: does not increase; also recorded: does not affect | isoform selectivity for the human RARβ2 receptors (RARβ2): highly isoform-selective agonists | pancreatic insulin secretion (Ob/Ob and Db/Db mice; Ob/Ob mice): decreased | body weights (Ob/Ob and Db/Db mice; genetically obese and diabetic Ob/Ob and Db/Db mice): significant reductions
